Experimental data published in patent US20110098288A1, “SULFONAMIDES AS ZAP-70 INHIBITORS” (priority 2008, published 2011).
Structures can show the parent of a compound that is named as a salt.

Columns and labels:
Jurkat cells = assay: Calcium release assay (Fluo-4 flow cytometry after anti-CD3 stimulation); format: cell-based; conditions: Homo sapiens, Jurkat cell line J77, anti-CD3 activation, read-out: IC50 (Calcium ion release in cells)
Protocol: Compounds of the present invention were tested in a Calcium release assay as described below.
The development of fluorescent probes makes it possible to measure the concentration of intracellular free Calcium ions in single living cells. Cells are first loaded with a cell-permeable Ca^2+-sensitive dye, then the test compound is added. Finally, cells are activated through the T cell receptor with an anti-CD3 antibody shortly before data acquisition on the flow cytometer. The release of Ca^2+ is measured as a function of time after cell stimulation. This protocol describes the flow cytometry method using the Fluo-3 and Fluo-4 dyes (Minta et al., 1989, J. Biol. Chem. 264(14):8171-8178) to measure the intracellular Ca^2+ concentration in Jurkat cells (see also June et al., 1997, Measurement of intracellular calcium ions by flow cytometry. In: Current Protocols in Cytometry (1997) Unit 9.8.1-9.8.19, John Wiley & Sons, Inc.).
In general, cells should be handled in the shortest time possible to assure their stability. Therefore the preparation of all materials in advance is highly recommended as well as using any incubation or centrifugation time to prepare the next steps (e.g. preparing compound dilution or starting the flow cytometer).
1) Prepare a work plan indicating the number of samples to be analyzed including controls. 2) Cell harvest: Centrifuge 50 to 100 ml of a Jurkat cell culture for 5 minutes at 1100 rpm. Discard the supernatant, pool the resuspended cell pellets in a single 50 ml Falcon tube, and fill up to 50 ml with PBS—CaCl2 (without FCS). Centrifuge again sample again. 3) Resuspend cell pellet with PBS—CaCl2 (without FCS) to achieve a concentration not lower than 10×10^6 cells/ml. Prepare an adequate dilution to evaluate the cell concentration and count the cells. 4) Separate the volume of cells needed to be loaded (for example […] for 20 samples) in a 50 ml Falcon tube. Fill up with PBS—CaCl2 to 900 μl for 107 cells. 5) Prepare in the dark a 1:1 mix of FLUO-4 (1 mM)+Pluronic F-127 (20%). 5 μl of Fluo-4 are needed per 107 cells. 6) Prepare a 1/10 dilution of this mix with PBS—CaCl2 (in the dark; for example 5 μl Fluo-4+5 μl F-127 completed to 100 μl). 7) Add the dye solution to the cells. […] 8) Incubate the sample for 30 minutes in a cell incubator (37° C., 5% CO2). Mix from time to time. 9) During this time prepare the adequate test compound dilution in PBS—CaCl2 (with 10% FCS). The solution should be 10 times more concentrated than the desired final concentration. Vortex each dilution. Prepare also the antibody dilutions: anti-CD3 (1/200) and GAM (1/25). 10) Label FACS tubes and distribute in the corresponding tube 30 μl of the compound dilution or only buffer for the control tubes. 11) After 30 minutes of incubation wash the cells twice in PBS—CaCl2 (with 10% FCS). During the washing steps make sure that the flow cytometer is already “ON” in order to warm the laser. 12) Resuspend the cell pellet in PBS—CaCl2 (with 10% FCS) at a concentration of 1.5×10^6 cells/ml. 13) Distribute 300 μl of cell suspension into the FACS tubes and mix gently. The compound incubation is starting. Keep samples at room temperature in the dark. 14) Open the settings of the cytometer. It is advised to have a template ready which is used for all measurements. Settings of the machine should also be the same from one experiment to the other which permits to evaluate the reproducibility of the cell preparation. 15) In Setup modus control your cell preparation on the cytometer. Cells should fit in the pre-defined gates. 16) During the compound incubation time, check also that cells are responding to the anti-CD3 activation as expected. Set a timer at 8 sec. Add 6 μl of anti-CD3 dilution (0.2 μg/ml final) and mix gently. Add 1 μl of GAM dilution (0.75 μg/ml final) and mix gently. Incubate the samples in water bath at 37° C. while starting timer. After 8 seconds of incubation, acquire data at medium speed for 200 seconds. […]

ZAP-70 = molecular target: T1, ZAP-70 (Homo sapiens, UniProt P43403); assay: ZAP-70 kinobeads assay; format: binding; conditions: competition with immobilized aminopyrido-pyrimidine ligand 24 in cell lysate; ZAP-70 detected by dot blot
T1 construct: endogenous in cells; host or cells: cell lysate
T1 sequence (P43403 1-619): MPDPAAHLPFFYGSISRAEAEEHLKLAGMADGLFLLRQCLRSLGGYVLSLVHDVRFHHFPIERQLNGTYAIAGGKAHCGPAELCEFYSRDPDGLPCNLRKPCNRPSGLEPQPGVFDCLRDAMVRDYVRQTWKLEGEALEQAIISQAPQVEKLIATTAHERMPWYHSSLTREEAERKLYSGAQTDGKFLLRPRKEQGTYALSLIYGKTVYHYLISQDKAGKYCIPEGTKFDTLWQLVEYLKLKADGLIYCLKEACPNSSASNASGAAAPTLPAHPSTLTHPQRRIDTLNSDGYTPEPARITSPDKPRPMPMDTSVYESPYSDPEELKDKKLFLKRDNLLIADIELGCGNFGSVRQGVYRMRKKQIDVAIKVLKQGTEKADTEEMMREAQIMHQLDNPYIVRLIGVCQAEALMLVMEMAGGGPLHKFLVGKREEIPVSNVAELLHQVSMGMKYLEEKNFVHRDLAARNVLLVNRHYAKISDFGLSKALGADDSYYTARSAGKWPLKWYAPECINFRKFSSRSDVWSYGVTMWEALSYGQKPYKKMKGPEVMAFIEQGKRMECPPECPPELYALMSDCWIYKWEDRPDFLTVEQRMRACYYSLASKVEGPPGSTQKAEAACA
How it was run: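 Competition binding format: compounds compete with a bead-immobilized aminopyrido-pyrimidine ligand for ZAP-70 in cell lysate. After bead separation and elution, bound ZAP-70 measured by antibody dot blot with infrared read-out.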

Row | Compound | IC50 (Jurkat cells) [nM] | IC50 (ZAP-70) [nM]
1 | CS(=O)(=O)Nc1ccccc1Nc1nc(Nc2ccc(OCCN3CCCCC3)cc2)ncc1F [Example 87] | < 100 | 100 to 1000
2 | CS(=O)(=O)Nc1ccccc1Nc1nc(Nc2ccc(NCCN3CCCC3)cc2)ncc1F [Example 93, N-(2-(5-fluoro-2-(4-(2-pyrrolidin-1-yl)ethylamino)phenylamino)pyrimidin-4-ylamino)phenyl)methanesulfonamide formate] | 100 to 1000 | 100 to 1000
3 | COc1cccc(Nc2ncc(F)c(Nc3ccccc3NS(C)(=O)=O)n2)c1 [Example 38, N-(2-(5-fluoro-2-(3-methoxyphenylamino)pyrimidin-4-ylamino)phenyl)methanesulfonamide] | 100 to 1000 | 1000 to 10000
4 | COc1cc(Nc2ncc(Br)c(Nc3ccccc3NS(C)(=O)=O)n2)cc(OC)c1OC [Example 70, N-(2-(5-bromo-2-(3,4,5-trimethoxyphenylamino)pyrimidin-4-ylamino)phenyl)methanesulfonamide] | 100 to 1000 | < 100
5 | CS(=O)(=O)Nc1ccccc1Nc1nc(Nc2ccc3c(c2)OCCO3)ncc1F [Example 4, N-(2-(2-(2,3-dihydrobenzo[b][1,4]dioxin-6-ylamino)-5-fluoropyrimidin-4-ylamino)phenyl)methanesulfonamide] | 100 to 1000 | 1000 to 10000
6 | COc1cc(Nc2ncc(Br)c(Nc3ccccc3NS(C)(=O)=O)n2)cc(OC)c1 [Example 105, N-(2-(5-bromo-2-(3,5-dimethoxyphenylamino)pyrimidin-4-ylamino)phenyl)methanesulfonamide] | < 100 | 100 to 1000
7 | COc1cc(Nc2ncc(F)c(Nc3ccccc3NS(C)(=O)=O)n2)ccc1N1CCCC1 [Example 88, N-(2-(5-fluoro-2-(3-methoxy-4-(pyrrolidin-1-yl)phenylamino)pyrimidin-4-ylamino)phenyl)methanesulfonamide] | 100 to 1000 | 100 to 1000
8 | CS(=O)(=O)Nc1ccccc1Nc1nc(Nc2cccc(OCCO)c2)ncc1F [Example 78, N-(2-(5-fluoro-2-(3-(2-hydroxyethoxy)phenylamino)pyrimidin-4-ylamino)phenyl)methanesulfonamide] | < 100 | 100 to 1000
9 | COc1ccc(Nc2ncc(Br)c(Nc3ccccc3NS(C)(=O)=O)n2)cc1 [Example 106, N-(2-(5-bromo-2-(4-methoxyphenylamino)pyrimidin-4-ylamino)phenyl)methanesulfonamide] | 100 to 1000 | 100 to 1000
10 | CN1CCN(CCOc2ccc(Nc3ncc(F)c(Nc4ccccc4NS(C)(=O)=O)n3)cc2)CC1 [Example 89, N-(2-(5-Fluoro-2-(4-(2-(4-methylpiperazin-1-yl)ethoxy)phenylamino)pyrimidin-4-ylamino)phenyl)methanesulfonamide] | 100 to 1000 | 100 to 1000
11 | Cc1cccc(Nc2nc(Nc3cccc(OCCN4CCCCC4)c3)ncc2F)c1NS(C)(=O)=O [Example 112, N-(2-(5-fluoro-2-(3-(2-(piperidin-1-yl)ethoxy)phenylamino)pyrimidin-4-ylamino)-6-methylphenyl)methanesulfonamide] | 100 to 1000 | < 100
12 | CN1CCCCC1COc1cccc(Nc2ncc(F)c(Nc3ccccc3NS(C)(=O)=O)n2)c1 (stereo not drawn) [Example 97, N-(2-(5-fluoro-2-(3-((1-methylpiperidin-2-yl)methoxy)phenylamino)pyrimidin-4-ylamino)phenyl)methanesulfonamide] | < 100 | 100 to 1000
13 | CS(=O)(=O)Nc1ccccc1Nc1nc(Nc2cccc(OCCN3CCCC3)c2)ncc1F [Example 95, N-(2-(5-fluoro-2-(3-(2-(pyrrolidin-1-yl)ethoxy)phenylamino)pyrimidin-4-ylamino)phenyl)methanesulfonamide] | 100 to 1000 | < 100
14 | COc1ccc(Nc2ncc(F)c(Nc3ccccc3NS(C)(=O)=O)n2)cc1 [Example 35, N-(2-(5-fluoro-2-(4-methoxyphenylamino)pyrimidin-4-ylamino)phenyl)methanesulfonamide] | 100 to 1000 | 100 to 1000

Further lines, results first:

Row | IC50 (Jurkat cells) [nM] | IC50 (ZAP-70) [nM] | Compound
15 | < 100 | < 100 | COc1cc(Nc2ncc(Cl)c(Nc3ccccc3NS(C)(=O)=O)n2)ccc1OCCN1CCCC1 [Example 141, N-(2-(5-chloro-2-(3-methoxy-4-(2-(pyrrolidin-1-yl)ethoxy)phenylamino)pyrimidin-4-ylamino)phenyl)methanesulfonamide]
16 | 100 to 1000 | 100 to 1000 | COc1cc(Nc2ncc(F)c(Nc3cccc(Cl)c3NS(C)(=O)=O)n2)cc(OC)c1OC [Example 184, N-(2-chloro-6-(5-fluoro-2-(3,4,5-trimethoxyphenylamino)pyrimidin-4-ylamino)phenyl)methanesulfonamide]
17 | < 100 | 100 to 1000 | COc1cc(Nc2nccc(Nc3cccc(C)c3NS(C)(=O)=O)n2)cc(OC)c1OC [Example 176, N-(2-methyl-6-(2-(3,4,5-trimethoxyphenylamino)pyrimidin-4-ylamino)phenyl)methanesulfonamide]
18 | 100 to 1000 | 100 to 1000 | COc1cc(Nc2ncc(F)c(Nc3ccc(F)c(C)c3NS(C)(=O)=O)n2)cc(OC)c1OC [Example 162, N-(3-fluoro-6-(5-fluoro-2-(3,4,5-trimethoxyphenylamino)pyrimidin-4-ylamino)-2-methylphenyl)methanesulfonamide]
19 | < 100 | < 100 | COc1cc(Nc2ncc(F)c(Nc3ccc(OC(C)C)cc3NS(C)(=O)=O)n2)cc(OC)c1OC [Example 182, N-(2-(5-fluoro-2-(3,4,5-trimethoxyphenylamino)pyrimidin-4-ylamino)-5-isopropoxyphenyl)methanesulfonamide]
20 | 100 to 1000 | 100 to 1000 | COc1cc(Nc2ncc(F)c(Nc3cccc(F)c3NS(C)(=O)=O)n2)cc(OC)c1OC [Example 183, N-(2-fluoro-6-(5-fluoro-2-(3,4,5-trimethoxyphenylamino)pyrimidin-4-ylamino)phenyl)methanesulfonamide]
21 | < 100 | < 100 | CCN(CC)CCOc1ccc(Nc2ncc(Cl)c(Nc3ccccc3NS(C)(=O)=O)n2)cc1 [Example 127, N-(2-(5-chloro-2-(4-(2-(diethylamino)ethoxy)phenylamino)pyrimidin-4-ylamino)phenyl)methanesulfonamide]
